# Laboratory results from ChEMBL document CHEMBL3044729, “Quantitative structure-activity relationships of pine weevil antifeedants, a multivariate approach” (2007).
# System: Hylobius abietis
# Assay: Antifeedant activity against Hylobius abietis (pine weevil ) in compound pre-treated Scots pine twig at 50 mM measured after 24 hr by two-choice laboratory bioassay
# Format: functional
row,Compound,AFI [%]
1,COC(=O)c1ccc(O)c(OC)c1 [METHYL VANILLATE],53
2,CCCCOc1ccc(CCC(=O)OC)cc1,70
3,COc1ccc(C(=O)O)cc1OC [VERATRIC ACID],7
4,"COC(=O)c1cc(Br)cc(Br)c1 [METHYL 3,5-DIBROMOBENZOATE]",50
5,COC(=O)/C=C/c1ccc(C)cc1,76
6,COC(=O)c1cccc(OC)c1O [METHYL 2-HYDROXY-3-METHOXYBENZOATE],95
7,"COC(=O)c1cc(OC)cc(OC)c1 [METHYL 3,5-DIMETHOXYBENZOATE]",95
8,"O=C(O)c1cc(O)cc(O)c1 [3,5-DIHYDROXYBENZOIC ACID]",41
9,COC(=O)CCc1ccccc1C,91
10,"COc1cc(C(N)=O)cc(OC)c1OC [3,4,5-TRIMETHOXYBENZAMIDE]",-2
11,"COC(=O)c1cccc(OC)c1OC [METHYL 2,3-DIMETHOXYBENZOATE]",73
12,COC(=O)/C=C/c1ccc(C(C)C)cc1,92
13,O=C(O)c1ccccc1O [SALICYLIC ACID],21
14,COC(=O)CCc1cccc(OC)c1OC,86
15,COC(=O)CCc1ccc(O)c(OC)c1 [DIHYDROFERULIC ACID METHYL ESTER],54
16,COC(=O)c1ccc(OC)c(O)c1 [ISOVANILLIC ACID METHYL ESTER],65
17,COc1cc(OC)cc(C(=O)OCCCc2ccc(OC)c(OC)c2)c1,41
18,CCCCCCCCc1ccc(C(=O)OC)cc1,35
19,COC(=O)CCc1ccc(OC)cc1,96
20,COC(=O)c1cc(O)ccc1OC,-3
21,COC(=O)CCc1ccc(C(C)=O)cc1,14
22,COC(=O)CCc1ccc(C(C)C)cc1,94
23,COC(=O)C(Br)C(Br)c1ccccc1 (racemic),50
24,COC(=O)CCc1ccc(N)cc1,29
25,CCOC(=O)C(Br)C(Br)c1ccccc1 (racemic; form 1),75
26,CC/C=C/CCOC(=O)c1cc(OC)cc(OC)c1,62

row,Compound,AFI [%]
1,COC(=O)CCc1ccc(C(F)(F)F)cc1,57
2,CCNC(=O)c1cc(OC)cc(OC)c1,86
3,"CCCCCCCCCCCCOC(=O)c1ccc(OC)c(OC)c1 [DODECYL 3,4-DIMETHOXYBENZOATE]",23
4,"COc1cc(OC)cc(C(=O)O)c1 [3,5-DIMETHOXYBENZOIC ACID]",-4
5,"COc1ccc(C(=O)OC(C)C)c(OC)c1 [ISOPROPYL 2,4-DIMETHOXYBENZOATE]",96
6,COC(=O)c1ccc(O)cc1 [METHYLPARABEN],34
7,COC(=O)CCc1ccc(N(C)C)cc1,84
8,COC(=O)CCc1ccc(Cl)c(Cl)c1,98
9,"COC(=O)c1cc([N+](=O)[O-])cc([N+](=O)[O-])c1 [METHYL 3,5-DINITROBENZOATE]",34
10,COC(=O)CCc1cc(OC)cc(OC)c1,89
11,CCSC(=O)c1cc(OC)cc(OC)c1,74
12,CCOC(=O)CC(O)c1ccccc1 (racemic),36
13,"COC(=O)c1ccc(OC)cc1OC [METHYL 2,4-DIMETHOXYBENZOATE]",99
14,COC(=O)c1cccc(O)c1OC [METHYL 3-HYDROXY-2-METHOXYBENZOATE],75
15,COC(=O)c1cccc(OC)c1 [METHYL 3-METHOXYBENZOATE],89
16,"COC(=O)c1c(OC)cccc1OC [METHYL 2,6-DIMETHOXYBENZOATE]",51
17,COc1cc(C(=O)O)cc(OC)c1O [SYRINGIC ACID],8
18,COC(=O)/C=C/c1ccc([N+](=O)[O-])cc1,32
19,COC(=O)c1ccc(OC)cc1 [METHYL 4-METHOXYBENZOATE],54
20,COc1cc(OC)cc(C(=O)OCC(F)(F)F)c1,86
21,COc1ccc(O)c(C(=O)O)c1,17
22,"COC(=O)c1cc(OC)ccc1OC [METHYL 2,5-DIMETHOXYBENZOATE]",89
23,COC(=O)c1cc(OC)ccc1O [METHYL 2-HYDROXY-5-METHOXYBENZOATE],74
24,COC(=O)CCc1ccc(F)cc1,98
25,COC(=O)CCc1ccc(OC)c(Br)c1,68
26,COC(=O)CCc1ccc(O)cc1 [4-HYDROXYHYDROCINNAMIC ACID METHYL ESTER],21

row,Compound,AFI [%]
1,COC(=O)CCc1cccc(C)c1,90
2,"COC(=O)c1ccc(OC)c(OC)c1OC [METHYL 2,3,4-TRIMETHOXYBENZOATE]",54
3,COC(=O)/C=C/c1ccc(N(C)C)cc1,49
4,COC(=O)c1ccccc1OC [METHYL 2-METHOXYBENZOATE],80
5,CCOC(=O)/C=C/c1ccccc1 [ETHYL CINNAMATE],83
6,COC(=O)c1ccc(O)cc1OC [METHYL 4-HYDROXY-2-METHOXYBENZOATE],35
7,COC(=O)CCc1ccc(OC)c(OC)c1,35
8,C=CCc1ccc(OC(=O)c2cc(OC)cc(OC)c2)c(OC)c1,17
9,"CC(=O)Oc1cc(C(=O)O)cc(OC(C)=O)c1OC(C)=O [3,4,5-TRIACETOXYBENZOIC ACID]",14
10,COC(=O)CCc1ccc(C)cc1C,100
11,COC(=O)/C=C/c1ccc(C(F)(F)F)cc1,62
12,"COC(=O)c1cc(C)cc(C)c1 [METHYL 3,5-DIMETHYLBENZOATE]",61
13,COc1cc(C(=O)O)ccc1O [VANILLIC ACID],48
14,COC(=O)/C=C/c1cc(OC)cc(OC)c1,72
15,CCCOC(=O)/C=C/c1ccccc1 [PROPYL CINNAMATE],85
16,COC(=O)c1ccc(OC)c(Cl)c1 [METHYL 3-CHLORO-4-METHOXYBENZOATE],36
17,COC(=O)c1c(C)cc(O)c(C)c1O [ATRARIC ACID],31
18,CCOC(=O)CC(O)c1ccccc1Br (racemic),59
19,CCC(C)OC(=O)/C=C/c1ccccc1 (stereo not drawn) [SEC-BUTYL CINNAMATE],48
20,COC(=O)CCc1cccc(OC)c1,95
21,"COC(=O)c1ccc(O)cc1O [METHYL 2,4-DIHYDROXYBENZOATE]",46
22,COC(=O)c1cc(O)c(O)c(O)c1 [GALLIC ACID METHYL ESTER],21
23,COC(=O)/C=C/c1cccc(OC)c1OC,99
24,COC(=O)CCc1cc(OC)c(OC)c(OC)c1,26
25,COc1ccc(C(=O)O)c(O)c1 [4-METHOXYSALICYLIC ACID],24
26,COC(=O)CCc1ccc(C)cc1,99

row,Compound,AFI [%]
1,COC(=O)CCc1ccccc1 [METHYL 3-PHENYLPROPANOATE],44
2,COC(=O)CCc1ccccc1OC,97
3,COc1cccc(C(=O)O)c1O,22
4,Cc1ccccc1CCC(=O)O,47
5,"COC(=O)c1ccc2c(c1)OCO2 [METHYL 3,4-METHYLENEDIOXYBENZOATE]",57
6,"COC(=O)c1cc(O)cc(O)c1 [METHYL 3,5-DIHYDROXYBENZOATE]",23
7,COc1ccc(C(=O)O)cc1O [ISOVANILLIC ACID],51
8,O=C(O)c1ccc(O)cc1 [PARABEN],31
9,COC(=O)/C=C/c1ccc(OC)cc1OC,96
10,O=C(O)c1ccc2c(c1)OCO2 [PIPERONYLIC ACID],14
11,COC(=O)CCc1ccc(Br)cc1,97
12,CCOC(=O)CCc1ccccc1 [ETHYL 3-PHENYLPROPANOATE],73
13,CC(C)OC(=O)/C=C/c1ccccc1 [ISOPROPYL CINNAMATE],96
14,COC(=O)/C=C/c1ccc(OC)c(OC)c1,36
15,"COC(=O)c1c(OC)cc(OC)cc1OC [METHYL 2,4,6-TRIMETHOXYBENZOATE]",55
16,COC(=O)c1c(O)cccc1OC [METHYL 2-HYDROXY-6-METHOXYBENZOATE],74
17,CCCCOC(=O)/C=C/c1ccccc1 [BUTYL CINNAMATE],38
18,COC(=O)c1cc(O)cc(OC)c1,54
19,COc1ccc(CCC(=O)OC(C)C)cc1,83
20,COC(=O)c1ccc(O)c(O)c1 [METHYL PROTOCATECHUATE],-7
21,COc1ccccc1CCC(=O)O,12
22,CC(C)OC(=O)c1ccc(O)cc1 [ISOPROPYL 4-HYDROXYBENZOATE],63
23,COC(=O)C(C)Cc1ccccc1 (racemic),79
24,CCOC(=O)C(Br)C(Br)c1ccccc1 (racemic; form 2),45
25,COC(=O)CCc1ccc(Cl)cc1,100
